Results from PubChem BioAssay AID1963986 (Molecular Pharmacology Branch, DTP, NCI, 2024).

System: 171881-019-R-J1-PDC tumor spheroid viability
Assay: Anticancer human tumor 171881-019-R-J1-PDC patient-derived invasive breast carcinoma cell line growth inhibition [PI3K]
Details: spheroids with HUVEC and MSC; for IC50: curve of first compound; for viability, T/C: stronger effect = lower value
How it was run: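 Complex 3D spheroids (cancer cells + endothelial HUVEC + mesenchymal stem cells); drug pairs of targeted agent x inavolisib/alpelisib/duvelisib/copanlisib; half-log series from ~Cmax, max 10 microM if Cmax unknown; endpoint viability.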

[1] = second compound 0.00316 µM, first compound 0.0316 µM
[2] = second compound 0.00316 µM, first compound 0.1 µM
[3] = second compound 0.00316 µM, first compound 0.316 µM
[4] = second compound 0.00316 µM, first compound 1 µM
[5] = second compound 0.00316 µM, first compound 3.16 µM
[6] = second compound 0.00316 µM, first compound 10 µM
[7] = second compound 0.01 µM, first compound 0.0316 µM
[8] = second compound 0.01 µM, first compound 0.1 µM
[9] = second compound 0.01 µM, first compound 0.316 µM
[10] = second compound 0.01 µM, first compound 1 µM
[11] = second compound 0.01 µM, first compound 3.16 µM
[12] = second compound 0.01 µM, first compound 10 µM
[13] = second compound 0.0316 µM, first compound 0.0316 µM
[14] = second compound 0.0316 µM, first compound 0.1 µM
[15] = second compound 0.0316 µM, first compound 0.316 µM
[16] = second compound 0.0316 µM, first compound 1 µM
[17] = second compound 0.0316 µM, first compound 3.16 µM
[18] = second compound 0.0316 µM, first compound 10 µM
[19] = second compound 0.1 µM, first compound 0.0316 µM
[20] = second compound 0.1 µM, first compound 0.1 µM
[21] = second compound 0.1 µM, first compound 0.316 µM
[22] = second compound 0.1 µM, first compound 1 µM
[23] = second compound 0.1 µM, first compound 3.16 µM
[24] = second compound 0.1 µM, first compound 10 µM
[25] = second compound 0.316 µM, first compound 0.0316 µM
[26] = second compound 0.316 µM, first compound 0.1 µM
[27] = second compound 0.316 µM, first compound 0.316 µM
[28] = second compound 0.316 µM, first compound 1 µM
[29] = second compound 0.316 µM, first compound 3.16 µM
[30] = second compound 0.316 µM, first compound 10 µM
[31] = second compound 1 µM, first compound 0.0316 µM
[32] = second compound 1 µM, first compound 0.1 µM
[33] = second compound 1 µM, first compound 0.316 µM
[34] = second compound 1 µM, first compound 1 µM
[35] = second compound 1 µM, first compound 3.16 µM
[36] = second compound 1 µM, first compound 10 µM
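Further: spheroids exposed to compound for 7 days before viability read.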
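Wherever viability, T/C is given: 100% = DMSO vehicle-treated spheroids.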

Compound: CC1(C)CCC(CN2CCN(c3ccc(C(=O)NS(=O)(=O)c4ccc(NCC5CCOCC5)c([N+](=O)[O-])c4)c(Oc4cnc5[nH]ccc5c4)c3)CC2)=C(c2ccc(Cl)cc2)C1 + COc1c(OCCCN2CCOCC2)ccc2c3n(c(=NC(=O)c4cnc(N)nc4)nc12)CCN3
- IC50 (second compound 0.00316 µM): > 10 µM
- IC50 (second compound 0.01 µM): 1.07 µM
- IC50 (second compound 0.0316 µM): < 0.0316 µM
- IC50 (second compound 0.1 µM): < 0.0316 µM
- IC50 (second compound 0.316 µM): < 0.0316 µM
- IC50 (second compound 1 µM): < 0.0316 µM
- viability, T/C [1]: 67.9%
- viability, T/C [2]: 71.5%
- viability, T/C [3]: 76.5%
- viability, T/C [4]: 75.8%
- viability, T/C [5]: 50.7%
- viability, T/C [6]: 56.9%
- viability, T/C [7]: 50.3%
- viability, T/C [8]: 54.2%
- viability, T/C [9]: 52.1%
- viability, T/C [10]: 50.6%
- viability, T/C [11]: 36.4%
- viability, T/C [12]: 46.5%
- viability, T/C [13]: 31.2%
- viability, T/C [14]: 27.1%
- viability, T/C [15]: 26.7%
- viability, T/C [16]: 31.9%
- viability, T/C [17]: 27.6%
- viability, T/C [18]: 27.7%
- viability, T/C [19]: 9.62%
- viability, T/C [20]: 8.56%
- viability, T/C [21]: 8.91%
- viability, T/C [22]: 8.46%
- viability, T/C [23]: 8.91%
- viability, T/C [24]: 7.62%
- viability, T/C [25]: 2.51%
- viability, T/C [26]: 1.88%
- viability, T/C [27]: 2.5%
- viability, T/C [28]: 2.1%
- viability, T/C [29]: 1.72%
- viability, T/C [30]: 1.63%
- viability, T/C [31]: 1.35%
- viability, T/C [32]: 0.89%
- viability, T/C [33]: 1.13%
- viability, T/C [34]: 0.95%
- viability, T/C [35]: 1.02%
- viability, T/C [36]: 0.92%

Compound: C[C@@H](NC(=O)c1ncnc(N)c1Cl)c1ncc(C(=O)Nc2cc(C(F)(F)F)c(Cl)cn2)s1 + COc1c(OCCCN2CCOCC2)ccc2c3n(c(=NC(=O)c4cnc(N)nc4)nc12)CCN3
- IC50 (second compound 0.00316 µM): 2.36 µM
- IC50 (second compound 0.01 µM): 0.234 µM
- IC50 (second compound 0.0316 µM): < 0.0316 µM
- IC50 (second compound 0.1 µM): < 0.0316 µM
- IC50 (second compound 0.316 µM): < 0.0316 µM
- IC50 (second compound 1 µM): < 0.0316 µM
- viability, T/C [1]: 62.5%
- viability, T/C [2]: 78.9%
- viability, T/C [3]: 67.5%
- viability, T/C [4]: 62.2%
- viability, T/C [5]: 45.9%
- viability, T/C [6]: 27.2%
- viability, T/C [7]: 50.9%
- viability, T/C [8]: 49.9%
- viability, T/C [9]: 51.3%
- viability, T/C [10]: 43.4%
- viability, T/C [11]: 29.9%
- viability, T/C [12]: 17.9%
- viability, T/C [13]: 27.5%
- viability, T/C [14]: 26.9%
- viability, T/C [15]: 26%
- viability, T/C [16]: 20.8%
- viability, T/C [17]: 16%
- viability, T/C [18]: 7.51%
- viability, T/C [19]: 9.3%
- viability, T/C [20]: 8.92%
- viability, T/C [21]: 5.88%
- viability, T/C [22]: 7.2%
- viability, T/C [23]: 4.61%
- viability, T/C [24]: 2.13%
- viability, T/C [25]: 2.53%
- viability, T/C [26]: 2.04%
- viability, T/C [27]: 2.28%
- viability, T/C [28]: 2.25%
- viability, T/C [29]: 1.53%
- viability, T/C [30]: 1.06%
- viability, T/C [31]: 1.22%
- viability, T/C [32]: 1.54%
- viability, T/C [33]: 1.62%
- viability, T/C [34]: 1.3%
- viability, T/C [35]: 0.85%
- viability, T/C [36]: 1.04%

Compound: Cn1ncnc1[C@H]1c2n[nH]c(=O)c3cc(F)cc(c23)N[C@@H]1c1ccc(F)cc1 + COc1c(OCCCN2CCOCC2)ccc2c3n(c(=NC(=O)c4cnc(N)nc4)nc12)CCN3
- IC50 (second compound 0.00316 µM): > 0.1 µM
- IC50 (second compound 0.01 µM): < 0.000316 µM
- IC50 (second compound 0.0316 µM): < 0.000316 µM
- IC50 (second compound 0.1 µM): < 0.000316 µM
- IC50 (second compound 0.316 µM): < 0.000316 µM
- IC50 (second compound 1 µM): < 0.000316 µM
- viability, T/C (second compound 0.00316 µM, first compound 0.000316 µM): 65.8%
- viability, T/C (second compound 0.00316 µM, first compound 0.001 µM): 69.5%
- viability, T/C (second compound 0.00316 µM, first compound 0.00316 µM): 62.6%
- viability, T/C (second compound 0.00316 µM, first compound 0.01 µM): 75%
- viability, T/C [1]: 59.7%
- viability, T/C [2]: 53.5%
- viability, T/C (second compound 0.01 µM, first compound 0.000316 µM): 43.3%
- viability, T/C (second compound 0.01 µM, first compound 0.001 µM): 47.2%
- viability, T/C (second compound 0.01 µM, first compound 0.00316 µM): 43.6%
- viability, T/C (second compound 0.01 µM, first compound 0.01 µM): 49.6%
- viability, T/C [7]: 41.7%
- viability, T/C [8]: 42%
- viability, T/C (second compound 0.0316 µM, first compound 0.000316 µM): 24.2%
- viability, T/C (second compound 0.0316 µM, first compound 0.001 µM): 24.2%
- viability, T/C (second compound 0.0316 µM, first compound 0.00316 µM): 21.8%
- viability, T/C (second compound 0.0316 µM, first compound 0.01 µM): 24.2%
- viability, T/C [13]: 23.6%
- viability, T/C [14]: 20.2%
- viability, T/C (second compound 0.1 µM, first compound 0.000316 µM): 7.63%
- viability, T/C (second compound 0.1 µM, first compound 0.001 µM): 7.42%
- viability, T/C (second compound 0.1 µM, first compound 0.00316 µM): 8.65%
- viability, T/C (second compound 0.1 µM, first compound 0.01 µM): 7.87%
- viability, T/C [19]: 7.14%
- viability, T/C [20]: 6.55%
- viability, T/C (second compound 0.316 µM, first compound 0.000316 µM): 2.06%
- viability, T/C (second compound 0.316 µM, first compound 0.001 µM): 1.56%
- viability, T/C (second compound 0.316 µM, first compound 0.00316 µM): 1.67%
- viability, T/C (second compound 0.316 µM, first compound 0.01 µM): 1.78%
- viability, T/C [25]: 2.25%
- viability, T/C [26]: 1.69%
- viability, T/C (second compound 1 µM, first compound 0.000316 µM): 1.89%
- viability, T/C (second compound 1 µM, first compound 0.001 µM): 1.19%
- viability, T/C (second compound 1 µM, first compound 0.00316 µM): 1.15%
- viability, T/C (second compound 1 µM, first compound 0.01 µM): 1.21%
- viability, T/C [31]: 1.01%
- viability, T/C [32]: 0.97%
